Reference: paper PMC11233931, “Remodeling tumor‐associated macrophage for anti‐cancer effects by rational design of irreversible inhibition of mitogen‐activated protein kinase‐activated protein kinase 2” (MedComm, 2024)

Assays:
Assay in all cases: Eurofins kinase selectivity profile against 380 other human recombinant kinases (Table S2)
Format in all cases: biochemical
[1] = biological target: T1, 380 human recombinant protein kinases (Homo sapiens, UniProt P00519, T315I); conditions: Abl(T315I)(h), read-out: Inhibition rate
T1 construct: purchased Eurofins (Celle Lévescault)
Procedure, shortened: (§1)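 To gauge specificity for MK2, the compound is profiled externally at various concentrations on recombinant human kinases, 380 in total.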

[2] = biological target: T2, 380 human recombinant protein kinases (Homo sapiens, UniProt P54646); conditions: AMPKα2(h), read-out: Inhibition rate
T2 construct: purchased Eurofins (Celle Lévescault)
Procedure, shortened: as §1

[3] = biological target: T3, 380 human recombinant protein kinases (Homo sapiens, UniProt P52333); conditions: JAK3(h), read-out: Inhibition rate
T3 construct: purchased Eurofins (Celle Lévescault)
T3 sequence (P52333 1-1124): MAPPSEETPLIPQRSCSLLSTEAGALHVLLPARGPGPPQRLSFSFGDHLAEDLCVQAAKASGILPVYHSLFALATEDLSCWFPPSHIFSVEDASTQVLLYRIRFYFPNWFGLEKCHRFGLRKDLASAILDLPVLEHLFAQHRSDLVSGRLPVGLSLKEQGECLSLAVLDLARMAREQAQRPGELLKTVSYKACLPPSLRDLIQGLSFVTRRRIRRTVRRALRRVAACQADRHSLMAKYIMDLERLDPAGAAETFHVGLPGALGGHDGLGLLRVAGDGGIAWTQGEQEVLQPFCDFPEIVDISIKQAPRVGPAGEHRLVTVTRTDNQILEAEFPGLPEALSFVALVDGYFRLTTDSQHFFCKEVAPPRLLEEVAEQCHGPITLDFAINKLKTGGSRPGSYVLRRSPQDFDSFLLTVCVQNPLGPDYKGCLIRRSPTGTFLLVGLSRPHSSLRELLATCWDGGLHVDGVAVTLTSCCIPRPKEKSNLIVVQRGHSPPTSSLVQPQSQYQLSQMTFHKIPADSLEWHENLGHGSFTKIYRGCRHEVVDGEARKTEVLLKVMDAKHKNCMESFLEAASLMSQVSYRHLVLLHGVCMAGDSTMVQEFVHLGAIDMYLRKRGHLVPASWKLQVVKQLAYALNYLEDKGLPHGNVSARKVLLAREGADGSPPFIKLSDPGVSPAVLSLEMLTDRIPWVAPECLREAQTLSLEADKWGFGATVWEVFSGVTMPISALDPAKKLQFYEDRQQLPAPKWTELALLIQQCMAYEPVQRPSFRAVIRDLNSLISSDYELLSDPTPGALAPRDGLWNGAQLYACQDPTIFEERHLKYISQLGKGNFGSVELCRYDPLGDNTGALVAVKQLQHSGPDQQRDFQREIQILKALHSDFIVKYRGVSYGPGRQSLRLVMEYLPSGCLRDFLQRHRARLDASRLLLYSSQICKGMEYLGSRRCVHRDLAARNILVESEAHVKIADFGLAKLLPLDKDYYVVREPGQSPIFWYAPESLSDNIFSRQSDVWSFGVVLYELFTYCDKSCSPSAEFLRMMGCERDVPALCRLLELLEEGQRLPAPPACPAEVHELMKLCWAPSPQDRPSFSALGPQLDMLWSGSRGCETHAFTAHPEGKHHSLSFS
Procedure, shortened: as §1

[4] = biological target: T4, 380 human recombinant protein kinases (Homo sapiens, UniProt Q13131); conditions: AMPKα1(h), read-out: Inhibition rate
T4 construct: purchased Eurofins (Celle Lévescault)
Procedure, shortened: as §1

[5] = biological target: T5, 380 human recombinant protein kinases (Homo sapiens, UniProt P22607); conditions: FGFR3(h), read-out: Inhibition rate
T5 construct: purchased Eurofins (Celle Lévescault)
Procedure, shortened: as §1

[6] = biological target: T6, 380 human recombinant protein kinases (Homo sapiens, UniProt P54756); conditions: EphA5(h), read-out: Inhibition rate
T6 construct: purchased Eurofins (Celle Lévescault)
Procedure, shortened: as §1

[7] = biological target: T7, 380 human recombinant protein kinases (Homo sapiens, UniProt Q00526); conditions: CDK3/cyclinE(h), read-out: Inhibition rate
T7 construct: purchased Eurofins (Celle Lévescault)
Procedure, shortened: as §1

[8] = biological target: T8, 380 human recombinant protein kinases (Homo sapiens, UniProt Q09013); conditions: DMPK(h), read-out: Inhibition rate
T8 construct: purchased Eurofins (Celle Lévescault)
T8 sequence (Q09013 1-629): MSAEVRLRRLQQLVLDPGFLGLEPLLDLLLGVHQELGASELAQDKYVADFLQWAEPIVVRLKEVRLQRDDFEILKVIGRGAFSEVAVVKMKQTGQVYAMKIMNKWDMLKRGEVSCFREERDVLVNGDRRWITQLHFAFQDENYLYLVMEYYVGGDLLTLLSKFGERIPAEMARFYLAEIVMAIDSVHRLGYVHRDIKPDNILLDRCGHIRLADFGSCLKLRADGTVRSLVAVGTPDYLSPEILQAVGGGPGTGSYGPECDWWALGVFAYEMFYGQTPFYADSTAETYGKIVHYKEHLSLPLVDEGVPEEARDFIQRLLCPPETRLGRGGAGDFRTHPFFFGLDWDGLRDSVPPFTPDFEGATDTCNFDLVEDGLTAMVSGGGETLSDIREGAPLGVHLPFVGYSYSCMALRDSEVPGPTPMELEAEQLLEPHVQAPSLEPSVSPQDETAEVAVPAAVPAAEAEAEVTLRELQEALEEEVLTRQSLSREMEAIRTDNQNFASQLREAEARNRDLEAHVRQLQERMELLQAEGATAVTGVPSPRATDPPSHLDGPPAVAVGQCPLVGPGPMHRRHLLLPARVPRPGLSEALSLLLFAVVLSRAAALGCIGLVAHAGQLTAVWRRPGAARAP
Procedure, shortened: as §1

[9] = biological target: T9, 380 human recombinant protein kinases (Homo sapiens, UniProt P49841); conditions: GSK3β(h), read-out: Inhibition rate
T9 construct: purchased Eurofins (Celle Lévescault)
Procedure, shortened: as §1

T9 sequence (P49841 whole entry): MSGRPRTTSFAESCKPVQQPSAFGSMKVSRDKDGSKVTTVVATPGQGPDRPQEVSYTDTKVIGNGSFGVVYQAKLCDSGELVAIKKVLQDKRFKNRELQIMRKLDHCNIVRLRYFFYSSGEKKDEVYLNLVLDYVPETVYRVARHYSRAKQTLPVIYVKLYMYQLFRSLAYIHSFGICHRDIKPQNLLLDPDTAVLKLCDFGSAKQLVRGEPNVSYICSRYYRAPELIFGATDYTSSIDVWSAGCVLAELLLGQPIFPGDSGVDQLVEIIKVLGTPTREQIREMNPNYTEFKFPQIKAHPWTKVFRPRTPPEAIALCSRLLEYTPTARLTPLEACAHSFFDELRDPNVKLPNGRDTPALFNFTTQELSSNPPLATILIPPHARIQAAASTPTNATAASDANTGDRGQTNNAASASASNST
T4 sequence (Q13131 whole entry): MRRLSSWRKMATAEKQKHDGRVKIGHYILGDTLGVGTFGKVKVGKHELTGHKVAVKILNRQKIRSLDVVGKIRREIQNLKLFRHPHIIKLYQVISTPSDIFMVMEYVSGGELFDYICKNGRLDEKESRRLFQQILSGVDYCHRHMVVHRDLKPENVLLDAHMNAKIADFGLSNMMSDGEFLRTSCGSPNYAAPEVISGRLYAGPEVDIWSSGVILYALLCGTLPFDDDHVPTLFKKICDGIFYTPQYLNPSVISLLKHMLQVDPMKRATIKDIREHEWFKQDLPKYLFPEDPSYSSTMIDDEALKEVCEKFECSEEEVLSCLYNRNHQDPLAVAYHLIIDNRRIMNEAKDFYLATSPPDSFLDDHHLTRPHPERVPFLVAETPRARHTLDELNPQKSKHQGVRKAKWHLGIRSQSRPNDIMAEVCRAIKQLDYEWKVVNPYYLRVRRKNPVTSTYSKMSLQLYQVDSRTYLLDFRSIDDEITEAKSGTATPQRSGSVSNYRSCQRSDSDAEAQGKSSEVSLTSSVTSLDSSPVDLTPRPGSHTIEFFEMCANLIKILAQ
T2 sequence (P54646 whole entry): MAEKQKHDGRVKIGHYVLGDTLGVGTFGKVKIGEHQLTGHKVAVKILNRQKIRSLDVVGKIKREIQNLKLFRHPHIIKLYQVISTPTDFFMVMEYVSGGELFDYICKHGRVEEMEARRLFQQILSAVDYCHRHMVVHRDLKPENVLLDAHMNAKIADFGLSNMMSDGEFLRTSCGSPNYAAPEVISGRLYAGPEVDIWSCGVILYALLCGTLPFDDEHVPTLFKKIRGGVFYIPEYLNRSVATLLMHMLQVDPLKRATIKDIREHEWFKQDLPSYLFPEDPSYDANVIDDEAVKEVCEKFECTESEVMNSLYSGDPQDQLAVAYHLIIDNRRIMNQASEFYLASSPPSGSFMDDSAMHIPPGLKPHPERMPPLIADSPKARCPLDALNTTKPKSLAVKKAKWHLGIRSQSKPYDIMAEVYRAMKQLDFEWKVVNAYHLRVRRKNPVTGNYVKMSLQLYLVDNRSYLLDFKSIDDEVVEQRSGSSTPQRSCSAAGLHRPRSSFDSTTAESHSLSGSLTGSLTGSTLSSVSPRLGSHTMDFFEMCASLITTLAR
T7 sequence (Q00526 whole entry): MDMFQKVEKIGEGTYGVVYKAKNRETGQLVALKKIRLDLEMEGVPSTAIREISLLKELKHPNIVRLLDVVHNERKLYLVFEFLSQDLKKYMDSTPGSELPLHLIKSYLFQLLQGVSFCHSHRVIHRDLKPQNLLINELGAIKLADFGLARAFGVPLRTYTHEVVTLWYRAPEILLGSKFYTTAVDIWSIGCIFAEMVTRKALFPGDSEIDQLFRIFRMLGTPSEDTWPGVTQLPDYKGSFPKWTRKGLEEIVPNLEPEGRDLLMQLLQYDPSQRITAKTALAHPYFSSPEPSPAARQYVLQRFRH
T5 sequence (P22607 23-806): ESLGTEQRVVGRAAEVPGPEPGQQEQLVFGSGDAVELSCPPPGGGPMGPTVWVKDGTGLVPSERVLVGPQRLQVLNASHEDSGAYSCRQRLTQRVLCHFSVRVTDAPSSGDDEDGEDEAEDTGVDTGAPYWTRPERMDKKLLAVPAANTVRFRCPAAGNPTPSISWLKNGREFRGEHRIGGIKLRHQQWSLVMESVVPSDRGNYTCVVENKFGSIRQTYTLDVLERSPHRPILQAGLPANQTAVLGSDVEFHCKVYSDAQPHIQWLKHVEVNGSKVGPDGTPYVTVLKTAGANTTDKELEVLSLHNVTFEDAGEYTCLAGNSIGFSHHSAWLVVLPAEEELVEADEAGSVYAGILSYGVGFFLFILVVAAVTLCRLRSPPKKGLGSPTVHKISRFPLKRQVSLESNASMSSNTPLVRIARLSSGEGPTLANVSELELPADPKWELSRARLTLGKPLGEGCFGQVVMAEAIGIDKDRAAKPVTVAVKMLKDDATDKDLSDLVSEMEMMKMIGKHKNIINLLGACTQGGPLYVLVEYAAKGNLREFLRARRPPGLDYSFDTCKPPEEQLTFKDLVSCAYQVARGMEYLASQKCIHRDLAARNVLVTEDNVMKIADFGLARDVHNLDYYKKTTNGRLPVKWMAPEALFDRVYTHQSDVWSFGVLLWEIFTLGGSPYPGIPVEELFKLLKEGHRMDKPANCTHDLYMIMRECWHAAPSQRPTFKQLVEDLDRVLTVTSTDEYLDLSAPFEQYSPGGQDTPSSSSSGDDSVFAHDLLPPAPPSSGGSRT
T6 sequence (P54756 25-1037): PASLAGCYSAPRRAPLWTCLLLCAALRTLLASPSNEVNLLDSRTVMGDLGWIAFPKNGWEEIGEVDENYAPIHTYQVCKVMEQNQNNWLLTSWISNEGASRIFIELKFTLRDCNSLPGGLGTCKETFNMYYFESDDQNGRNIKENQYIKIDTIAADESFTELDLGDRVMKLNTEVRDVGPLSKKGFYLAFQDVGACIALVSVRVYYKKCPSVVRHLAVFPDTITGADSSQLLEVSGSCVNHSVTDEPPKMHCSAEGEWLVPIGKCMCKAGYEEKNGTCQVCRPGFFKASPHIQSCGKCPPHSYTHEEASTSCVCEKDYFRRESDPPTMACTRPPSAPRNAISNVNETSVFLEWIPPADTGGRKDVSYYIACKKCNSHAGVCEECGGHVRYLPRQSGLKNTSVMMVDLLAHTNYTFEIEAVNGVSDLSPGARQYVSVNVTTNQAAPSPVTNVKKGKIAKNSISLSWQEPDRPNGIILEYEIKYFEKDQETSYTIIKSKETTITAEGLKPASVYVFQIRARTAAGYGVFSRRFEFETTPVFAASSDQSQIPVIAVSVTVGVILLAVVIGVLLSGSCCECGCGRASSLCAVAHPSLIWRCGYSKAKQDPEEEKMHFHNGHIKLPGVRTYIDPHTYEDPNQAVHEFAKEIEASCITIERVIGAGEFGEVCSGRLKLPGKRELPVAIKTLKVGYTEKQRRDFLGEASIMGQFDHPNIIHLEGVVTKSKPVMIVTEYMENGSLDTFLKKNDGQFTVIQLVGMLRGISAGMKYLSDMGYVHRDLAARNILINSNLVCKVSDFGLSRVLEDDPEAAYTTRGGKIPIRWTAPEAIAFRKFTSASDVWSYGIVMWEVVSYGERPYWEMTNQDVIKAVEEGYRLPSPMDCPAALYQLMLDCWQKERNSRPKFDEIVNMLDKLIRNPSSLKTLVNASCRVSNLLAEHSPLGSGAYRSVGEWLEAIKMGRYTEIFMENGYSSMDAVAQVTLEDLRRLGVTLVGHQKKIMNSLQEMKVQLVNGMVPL

In the case of `C=CC(=O)Nc1cc(-c2cc(-c3cc4c([nH]3)CCNC4=O)ccn2)ccc1OC(F)(F)F` [compound 11], the inhibition at 0.01 µM ([1]; 10 nM) is reported as 6%, the inhibition at 0.1 µM ([1]; 100 nM) is reported as 11% and the inhibition at 1 µM ([1]; 1000 nM) is reported as 31%. It also gave an inhibition at 0.01 µM ([2]; 10 nM) of 3%, an inhibition at 0.1 µM ([2]; 100 nM) of 11% and an inhibition at 1 µM ([2]; 1000 nM) of 43%. For the same compound, the inhibition at 0.01 µM ([3]; 10 nM) was 8%, the inhibition at 0.1 µM ([3]; 100 nM) was 5% and the inhibition at 1 µM ([3]; 1000 nM) was 12%. For the same compound, the inhibition at 0.01 µM ([4]; 10 nM) was 6%, the inhibition at 0.1 µM ([4]; 100 nM) was 20% and the inhibition at 1 µM ([4]; 1000 nM) was 65%. The inhibition at 0.01 µM ([5]; 10 nM) was 2%, the inhibition at 0.1 µM ([5]; 100 nM) was 9% and the inhibition at 1 µM ([5]; 1000 nM) was 0%. It also gave an inhibition at 0.01 µM ([6]; 10 nM) of -1%, an inhibition at 0.1 µM ([6]; 100 nM) of 4% and an inhibition at 1 µM ([6]; 1000 nM) of 1%. It also gave an inhibition at 0.01 µM ([7]; 10 nM) of -5%, an inhibition at 0.1 µM ([7]; 100 nM) of -1% and an inhibition at 1 µM ([7]; 1000 nM) of 0%. It also gave an inhibition at 0.01 µM ([8]; 10 nM) of -5%, an inhibition at 0.1 µM ([8]; 100 nM) of 1% and an inhibition at 1 µM ([8]; 1000 nM) of 7%. It also gave an inhibition at 0.01 µM ([9]; 10 nM) of -10%, an inhibition at 0.1 µM ([9]; 100 nM) of -7% and an inhibition at 1 µM ([9]; 1000 nM) of 5%.
